These results are taken from ChEMBL document CHEMBL3621083, “Dehydroabietylamine derivatives as multifunctional agents for the treatment of Alzheimer's disease” (Medchemcomm, 2014).

The source made the active and inactive calls. The calls are words filed in the database; no cut-off is given here.

Series [1] addresses T1, Amyloid-beta precursor protein (Homo sapiens, UniProt P05067). Put plainly: Inhibition of amyloid beta-42 (unknown origin) aging fibrils disaggregation at 50 uM by thioflavin-T fluorescence assay.
Series [2] addresses T1, Amyloid-beta precursor protein. Put plainly: Inhibition of amyloid beta-42 (unknown origin) self-mediated aggregation at 50 uM by thioflavin-T fluorescence assay.
The subject of series [3] is SH-SY5Y. Kind of series: Anti-oxidative activity in human SH-SY5Y cells assessed as reduction of ROS generation at 10 uM using DCFH-DA. The class given is functional.
Series [4] has as its system SH-SY5Y. Put plainly: Cytotoxicity against human SH-SY5Y cells assessed as cell viability at 10 uM after 48 hrs by MTT assay. The class given is cell-based.
Series [5] has as its target T1, Amyloid-beta precursor protein. Kind of series: Inhibition of fibrils formation in aggregated amyloid beta-42 (unknown origin) assessed as short fibril formation at 50 uM after 48 hrs by transmission electron microscopy analysis.
Series [6] deals with Caenorhabditis elegans. Put plainly: Anti-Alzheimer's activity in Caenorhabditis elegans CL4176 expressing amyloid beta assessed as increase of average time of life expectancy at 50 uM (reference value: 46.9 +/- 0.54 hrs). The class given is functional.
Series [7] has as its system SH-SY5Y. Kind of series: Neuroprotective activity in human SH-SY5Y cells assessed as protection against amyloid beta-42-induced cell death at 5 to 50 uM after 48 hrs by MTT assay (reference value: 50.02 +/- 4.98%). The format is functional. (In general: Tetrazolium dyes change colour on reduction, which living cells bring about.)
The target of series [8] is T1, Amyloid-beta precursor protein. Put plainly: Inhibition of amyloid beta-42 (unknown origin) aging fibrils disaggregation by thioflavin-T fluorescence assay.
The target is the same in series [9]. Put plainly: Inhibition of amyloid beta-42 (unknown origin) self-mediated aggregation by thioflavin-T fluorescence assay.
Series [10] shares this target. Put plainly: Inhibition of amyloid beta-42 (unknown origin) beta sheets structure formation at 40 uM after 48 hrs by circular dichroism spectra analysis. A general note: Circular dichroism is widely used to follow secondary structure.
For series [11], the system named is Caenorhabditis elegans. Kind of series: Reduction of amyloid beta expression in Caenorhabditis elegans CL4176 at 10 to 50 uM by Western blot analysis. The format is functional, organism-based. (Immunoblotting shows a protein as a band on a membrane.)
In series [12] the test system is Caenorhabditis elegans. Put plainly: Anti-Alzheimer's activity in Caenorhabditis elegans CL4176 expressing amyloid beta assessed as increase of average time of life expectancy at 500 uM (reference value: 46.9 +/- 0.54 hrs). The format is functional.
Series [13] addresses T1, Amyloid-beta precursor protein. Kind of series: Inhibition of amyloid beta-42 (unknown origin) fibrils formation at 50 uM after 48 hrs by transmission electron microscopy analysis.
In series [14] the test system is SH-SY5Y. Put plainly: Cytotoxicity against human SH-SY5Y cells assessed as cell viability at 1 to 50 uM after 48 hrs by MTT assay. The format is cell-based.
Series [15] deals with T1, Amyloid-beta precursor protein. Put plainly: Inhibition of swAPP-mediated amyloid beta-42 production in human HEK293 cells at 10 uM after 48 hrs by ELISA (reference value: 100 +/-3.45%). The class given is cell-based. On the set-up: scale not given: the % may be the effect or the level left.
In series [16] the test system is Caenorhabditis elegans. Put plainly: Anti-Alzheimer's activity in Caenorhabditis elegans CL4176 expressing amyloid beta assessed as increase of average time of life expectancy at 200 uM (reference value: 46.9 +/- 0.54 hrs). The class given is functional.
Series [17] relates to Caenorhabditis elegans. Put plainly: Anti-Alzheimer's activity in Caenorhabditis elegans CL4176 expressing amyloid beta assessed as increase of average time of life expectancy at 10 uM (reference value: 46.9 +/- 0.54 hrs). The format is functional.
Series [18] deals with T1, Amyloid-beta precursor protein. Put plainly: Inhibition of swAPP-mediated amyloid beta-42 production in human HEK293 cells at 25 uM after 48 hrs by ELISA (reference value: 100 +/-3.45%). The format is cell-based. On the set-up: scale not given: the % may be the effect or the level left.
Series [19] is described as follows: Cytotoxicity against human HEK293 cells expressing swAPP assessed as cell viability at 25 uM after 48 hrs by MTT assay. The format is cell-based. Particulars: read-out: Activity.
The subject of series [20] is Caenorhabditis elegans. Put plainly: Anti-Alzheimer's activity in Caenorhabditis elegans CL4176 assessed as delay in amyloid beta-induced paralysis at 10 to 50 uM after 36 hrs of amyloid beta expression. The format is functional, organism-based.
Series [21] concerns the target T1, Amyloid-beta precursor protein. Put plainly: Increase of alpha-helics formation in amyloid beta-42 (unknown origin) at 40 uM after 48 hrs by circular dichroism spectra analysis.
The subject of series [22] is Caenorhabditis elegans. Kind of series: Anti-Alzheimer's activity in Caenorhabditis elegans CL4176 assessed as delay in amyloid beta-induced paralysis at 500 uM after 36 hrs of amyloid beta expression. The format is functional, organism-based.

T1 sequence (P05067 whole entry): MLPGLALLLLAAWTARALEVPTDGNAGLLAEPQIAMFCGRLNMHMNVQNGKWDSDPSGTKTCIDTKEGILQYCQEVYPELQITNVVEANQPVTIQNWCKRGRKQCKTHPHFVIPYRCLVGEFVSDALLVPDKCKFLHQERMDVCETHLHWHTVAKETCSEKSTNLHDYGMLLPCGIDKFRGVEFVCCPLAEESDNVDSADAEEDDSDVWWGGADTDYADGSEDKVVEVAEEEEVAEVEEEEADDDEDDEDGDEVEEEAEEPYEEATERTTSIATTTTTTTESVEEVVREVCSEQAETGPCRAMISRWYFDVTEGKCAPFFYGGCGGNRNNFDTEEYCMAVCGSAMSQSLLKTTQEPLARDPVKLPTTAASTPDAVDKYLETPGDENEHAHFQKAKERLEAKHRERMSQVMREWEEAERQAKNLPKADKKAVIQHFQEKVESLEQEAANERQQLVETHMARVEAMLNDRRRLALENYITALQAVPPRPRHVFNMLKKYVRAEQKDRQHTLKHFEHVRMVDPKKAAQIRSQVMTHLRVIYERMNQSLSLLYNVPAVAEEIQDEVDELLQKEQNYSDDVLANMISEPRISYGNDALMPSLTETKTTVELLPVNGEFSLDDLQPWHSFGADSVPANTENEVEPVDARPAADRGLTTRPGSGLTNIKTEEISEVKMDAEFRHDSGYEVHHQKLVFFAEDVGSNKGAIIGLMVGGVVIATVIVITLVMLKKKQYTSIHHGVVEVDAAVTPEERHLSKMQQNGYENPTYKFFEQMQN

As to `CC(C)c1ccc2c(c1)CC[C@H]1[C@](C)(CN)CCC[C@]21C`, the inhibition result (in [1]; in [2]; with SH-SY5Y [3]) was “inactive” throughout.

`CC(C)c1c(NC(=O)/C=C/c2ccc(O)c(O)c2)cc2c(c1NC(=O)/C=C/c1ccc(O)c(O)c1)CC[C@H]1[C@](C)(CNC(=O)/C=C/c3ccc(O)c(O)c3)CCC[C@]21C`: the figures for the inhibition in [1] and in series [2] were 82.5% and 93.3%, respectively. Also, the Activity result in the series with SH-SY5Y [4] is on record as “Non-toxic”. Also, the inhibition – broadly, how much of the control response was suppressed – at 10 µM in the series on SH-SY5Y [3] worked out at 53.9%.

Take `CC(=O)NC[C@]1(C)CCC[C@]2(C)c3ccc(C(C)C)cc3/C(=N/OC(=O)c3ccc(Cl)cc3)C[C@@H]12`: the inhibition entry in [1] and in series [2] was “inactive” in each case. The inhibition at 10 µM with SH-SY5Y [3] turned out to be 10.4%.

`CC(C)c1c(NC(=O)/C=C/c2ccc(O)c(O)c2)cc2c(c1[N+](=O)[O-])CC[C@H]1[C@](C)(CNC(=O)/C=C/c3ccc(O)c(O)c3)CCC[C@]21C`: the inhibition result in [5], in [10] and in series [13] was “Active” each time. For the same compound, the Time in the series on Caenorhabditis elegans [6] amounted to 50.5 h; in the series with Caenorhabditis elegans [12] it was 44.7 h; in the series with Caenorhabditis elegans [16], 48.8 h; in the series with Caenorhabditis elegans [17] it was 48.2 h. For the same compound, the Activity is 53.5% in the series on SH-SY5Y [7]; “Non-toxic” in the series on SH-SY5Y [14]; “Non-toxic” in the series with SH-SY5Y [4]; 45.6% in series [15]; 10.4% in series [18]. The figures for the inhibition entry in series [8], in series [1] and in [2] were “Dose-dependent effect”, 82.8% and 92%, respectively. In addition, the IC50 (commonly the concentration at which inhibition is half-maximal) in [9] amounted to 3.96 µM. The result (in the series with Caenorhabditis elegans [11]; with Caenorhabditis elegans [20]; in series [21]) was Active. Further, in series [19], the viability at 48 h, 25 µM was above 90%. Also, the inhibition at 10 µM in the series on SH-SY5Y [3] was determined as 62.4%.

As to `COc1cc(/C=C/C(=O)CC(=O)/C=C/c2ccc(O)c(OC)c2)ccc1O` [CURCUMIN], the Activity result in the series with SH-SY5Y [4] is given as “Non-toxic”. The inhibition at 10 µM in the series with SH-SY5Y [3] was determined as 37.9%.

With `CC(C)c1ccc2c(c1)CC[C@H]1[C@](C)(C/N=C\c3ccc(O)cc3O)CCC[C@]21C`, the inhibition stood at 10.7% in [1] and 24.5% in [2]. In addition, in the series on SH-SY5Y [4], the Activity entry is “Non-toxic”. The inhibition at 10 µM in the series with SH-SY5Y [3] is 26.1%.

`CC(C)c1c(N)cc2c(c1[N+](=O)[O-])CC[C@H]1[C@](C)(CN)CCC[C@]21C`: the inhibition result (in series [1]; in series [2]; with SH-SY5Y [3]) was “inactive” in each case.

On to `CC(=O)NC[C@]1(C)CCC[C@]2(C)c3ccc(C(C)C)cc3/C(=N/NC(=O)c3ccncc3)C[C@@H]12`, for which the inhibition result (in series [1]; in [2]; with SH-SY5Y [3]) was “inactive” throughout.

`CC(C)c1ccc2c(c1)/C(=N/NC(=O)c1ccncc1)C[C@H]1[C@](C)(CNC(=O)C(F)(F)F)CCC[C@]21C`: the inhibition result (in series [1]; in series [2]; with SH-SY5Y [3]) was “inactive” in each case.

In the case of `CC(C)c1ccc2c(c1)C(=O)C[C@H]1[C@](C)(CNC(=O)C(F)(F)F)CCC[C@]21C`, the inhibition result in series [1] and in series [2] was “inactive” throughout. The inhibition at 10 µM in the series on SH-SY5Y [3] turned out to be 19.8%.

Turning to `CC(C)c1c(N)cc2c(c1[N+](=O)[O-])CC[C@H]1[C@](C)(CNC(=O)c3ccc(O)c(O)c3)CCC[C@]21C`, the inhibition in series [1] worked out at 14.2%; in [2], 26.1%. In addition, in the series on SH-SY5Y [3], the inhibition at 10 µM came out at 31.2%.

On to `C/C=C1\[C@H]2C=C(C)C[C@]1(N)c1ccc(=O)[nH]c1C2` [HUPERZINE A], for which the outcome with Caenorhabditis elegans [22] was Active. Further, the Time in the series with Caenorhabditis elegans [12] was found to be 48.3 h.

On to `CC(C)c1ccc2c(c1)C(=O)C[C@H]1[C@](C)(CN)CCC[C@]21C`, for which the inhibition result (in series [1]; in [2]; in the series on SH-SY5Y [3]) was “inactive” in each case.

On to `CC(=O)NC[C@]1(C)CCC[C@]2(C)c3ccc(C(C)C)cc3/C(=N\NC(N)=O)C[C@@H]12`, for which the inhibition entry in series [1] and in series [2] was “inactive” throughout. In addition, the inhibition at 10 µM in the series with SH-SY5Y [3] is 13.3%.

`CC(C)c1ccc2c(c1)/C(=N/O)C[C@H]1[C@](C)(CNC(=O)C(F)(F)F)CCC[C@]21C`: the inhibition result in series [1] and in [2] was “inactive” each time. The inhibition at 10 µM in the series on SH-SY5Y [3] was 34.1%.

As to `CC(=O)NC[C@]1(C)CCC[C@]2(C)c3ccc(C(C)C)cc3/C(=N/NC(C)=O)C[C@@H]12`, the inhibition result (in series [1]; in [2]; in the series with SH-SY5Y [3]) was “inactive” in each case.

Turning to `CC(=O)NC[C@]1(C)CCC[C@]2(C)c3ccc(C(C)C)cc3/C(=N\NC(N)=S)C[C@@H]12`, the inhibition result (in series [1]; in series [2]; in the series with SH-SY5Y [3]) was “inactive” each time.

On to `CC(C)c1ccc2c(c1)CC[C@H]1[C@](C)(CNC(=O)c3cc(O)c(O)c(O)c3)CCC[C@]21C`, for which the inhibition is 49% in [1] and 74.6% in [2]. Besides, the Activity result with SH-SY5Y [4] is on record as “Non-toxic”. The inhibition at 10 µM in the series with SH-SY5Y [3] turned out to be 50.8%.

For `CC(=O)Oc1cc(/C=N\C[C@]2(C)CCC[C@]3(C)c4ccc(C(C)C)cc4CC[C@@H]23)cc(OC(C)=O)c1OC(C)=O`, the inhibition was 8.93% in series [1] and 20.6% in [2]. For the same compound, the inhibition at 10 µM with SH-SY5Y [3] came to 48.2%.

Consider `CC(=O)Oc1cc(C(=O)NC[C@]2(C)CCC[C@]3(C)c4ccc(C(C)C)cc4CC[C@@H]23)cc(OC(C)=O)c1OC(C)=O`, for which the figures for the inhibition in series [1] and in [2] were 37.6% and 55.3%, respectively. For the same compound, in the series on SH-SY5Y [4], the Activity entry is reported as “Non-toxic”. For the same compound, the inhibition at 10 µM with SH-SY5Y [3] turned out to be 41.8%.

As for `CC(=O)NC[C@]1(C)CCC[C@]2(C)c3ccc(C(C)C)cc3/C(=N/O)C[C@@H]12`, the inhibition entry in series [1] and in series [2] was “inactive” throughout. The inhibition at 10 µM with SH-SY5Y [3] came to 41.2%.
